Source: US12331029B2, “Orexin 1 receptor antagonists” (NXERA PHARMA UK LIMITED, priority 2018, dated 2025)

Legend:
Human OX1 receptor [1] = target: T1, Human OX1 receptor (Homo sapiens, UniProt O43613); test: [3H]-radioligand binding assay, human OX1 receptor membranes
T1 sequence (O43613 1-425): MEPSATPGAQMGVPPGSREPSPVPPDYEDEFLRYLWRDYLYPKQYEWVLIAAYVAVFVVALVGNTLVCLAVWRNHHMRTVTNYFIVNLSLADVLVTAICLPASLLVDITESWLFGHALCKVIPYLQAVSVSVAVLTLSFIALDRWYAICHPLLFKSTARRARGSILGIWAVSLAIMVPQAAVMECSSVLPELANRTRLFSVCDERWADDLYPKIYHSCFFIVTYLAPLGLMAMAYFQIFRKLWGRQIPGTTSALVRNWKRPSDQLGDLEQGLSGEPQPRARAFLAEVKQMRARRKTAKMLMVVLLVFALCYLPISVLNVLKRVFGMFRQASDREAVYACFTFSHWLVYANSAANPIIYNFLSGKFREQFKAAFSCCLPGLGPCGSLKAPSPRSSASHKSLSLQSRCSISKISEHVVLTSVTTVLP
Experimental: (§2) Human OX1 or OX2 receptor were cloned into Invitrogen's (ThermoFisher Scientific, UK) Bac-to-Bac Baculovirus Expression System. P0 baculovirus was generated by transfecting SF9 cells with bacmid DNA using Cellfectin® II transfection reagent (ThermoFisher Scientific, UK, Catalog number 10362-100). Following P0 generation P1 virus was then generated ready for large scale infection and membrane preparation. SF21 cells were grown in expression medium ESF921 (Expression Systems, USA, catalog number 96-001-01) supplemented with 10% heat-inactivated FBS and 1% Pen/Strep and were infected at a cell density of 2.5×10^6 cells/mL and a multiplicity of infection of 1.0 for both human OX1R and OX2R. Incubation was carried out at over 48 h in a shaking incubator set at 27° C. The cell culture was then centrifuged at 2,500 rcf for 10 min at 4° C. The pellets were resuspended in cold PBS supplemented with Roche's Complete EDTA-free protease inhibitor cocktail tablets (Roche Applied Sciences, catalog number 05056489001), 1 mM PMSF and 1 mM EDTA. The resuspended cell paste was then centrifuged at 3,273 rcf for 12 min at 4° C. The supernatant was discarded and the pellet frozen at −80° C. The cell pellet from a 4 L culture was resuspended in buffer containing 50 mM HEPES pH 7.5, 150 mM NaCl, 8 Roche EDTA-Free protease inhibitor cocktail tablets and 1 mM PMSF. The suspension was left stirring at rt for 1 h and then homogenised for 90 s at 9,500 rpm using a VDI 25 (VWR, USA) homogeniser. The cells were then lysed using a Microfluidiser processor M-110L Pneumatic (Microfluidics, USA) at 60 PSI and membranes collected by ultracentrifugation at 204.7 k×g for 1 h. The supernatant was discarded and the pellet was resuspended and homogenised in 90 s at 9,500 rpm in 50 mL (25 mL for each 2 L culture) of buffer containing 50 mM Hepes pH 7.5, 150 mM NaCl, 3 Roche EDTA-free protease inhibitor cocktail tablets and 1 mM PMSF. The resulting membranes were then stored at −80° C.
(§3) [^3H]-radioligand binding assay. After thawing, membrane homogenates were re-suspended in the binding buffer (8.5 mM HEPES, pH 7.4, 1.3 mM CaCl2, 1.2 mM MgSO4, 118 mM NaCl, 4.7 mM KCl, 4 mM NaHCO3, 1.2 mM KH2PO4, 11 mM glucose) to a final assay concentration of 6.4 μg (OX1) or 1.4 μg (OX2) protein per well. Saturation isotherms were determined by the addition of various concentrations (0-30 nM) of [^3H]-4-(2,6-difluoro-4-methoxybenzyl)-2-(5,6-dimethoxypyridin-3-yl)-2H-1,2,4-benzothiadiazin-3(4H)-one 1,1-dioxide (Christopher et al, MedChemComm., 2015, 6, 947-955) in a total reaction volume of 250 μL for 90 min at rt. At the end of the incubation, membranes were filtered onto a 96-well GF/B filter pre-incubated with 0.5% polyethylenimine, with a Tomtec cell harvester and washed 5 times with 0.5 mL distilled water. Non-specific binding (NSB) was measured in the presence of 3.33 μM [4-(5-chloro-1,3-benzoxazol-2-yl)-7-methyl-1,4-diazepan-1-yl][5-methyl-2-(2H-1,2,3-triazol-2-yl)phenyl]methanone (Wertz et al, Angew. Chem. Int. Ed., 2011, 50, 11511-11515). Radioactivity on the filter was counted (1 min) on a Microbeta radiometric plate counter (Perkin Elmer) after addition of 50 μL of scintillation fluid (LabLogic: Part #SG-BXX-14). […] IC50 values were derived from the inhibition curve and the equilibrium dissociation constant (Ki) values were calculated using the Cheng-Prusoff equation.

Human OX2 receptor [2] = target: T2, Human OX2 receptor (Homo sapiens, UniProt O43614); test: IPone accumulation assay, CHO cells expressing human OX2 receptor; assay type: cell-based; conditions: antagonism of orexin A (EC80) induced inositol phosphate turnover, read-out: fpKb average OX2
T2 sequence (O43614 1-444): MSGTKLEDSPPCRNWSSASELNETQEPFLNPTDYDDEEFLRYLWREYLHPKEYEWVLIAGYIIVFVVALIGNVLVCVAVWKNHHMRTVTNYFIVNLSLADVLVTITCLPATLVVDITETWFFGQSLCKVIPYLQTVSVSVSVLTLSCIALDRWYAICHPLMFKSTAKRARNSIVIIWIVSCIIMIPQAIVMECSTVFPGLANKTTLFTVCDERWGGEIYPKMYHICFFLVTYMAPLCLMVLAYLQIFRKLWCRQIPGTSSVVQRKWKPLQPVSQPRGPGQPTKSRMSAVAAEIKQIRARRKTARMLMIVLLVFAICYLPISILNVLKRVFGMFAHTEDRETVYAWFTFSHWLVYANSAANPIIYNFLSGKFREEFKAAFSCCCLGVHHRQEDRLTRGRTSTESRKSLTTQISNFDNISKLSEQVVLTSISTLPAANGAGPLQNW
Experimental: (§1) Stable cell lines for the human OX1R and OX2R receptors were generated through the transfection of CHO cells using the transfection reagent Genejuice (Novagen number 70967) and cDNA coding for either the human OX1R or OX2R. Cells were cultured in Sigma Nutrient Mixture F-12 Ham media (catalog number N6658) supplemented with 10% heat-inactivated FBS. Forty-eight hours after transfection, cells were harvested and placed under geneticin selection by culturing in Sigma Nutrient Mixture F-12 Ham media supplemented with 10% heat-inactivated FBS and geneticin (ThermoFisher Catalog number: 10131035). Selection of the final stable clone for each receptor was made on the basis of receptor expression, assay signal to noise and robustness though increasing passage. Selected clones for the human OX1R and OX2R were then frozen down into liquid nitrogen using Cell Freezing Medium-DMSO (Sigma-Aldrich catalog number: C6164).
IPone accumulation assay. A CHO cell line stably expressing either human OX1 or OX2 receptor was used with the IPone HTRF assay kit (CisBio: Part #62IPAPEJ) to measure receptor activation. The assay was optimised to measure the ability (potency; fpKb) of antagonists to reduce agonist (orexin A)-induced inositol phosphate turnover. Briefly, cells were plated onto half area 96-well white walled plates at a density of 12,500 cells/well. Sixteen hours post-plating cell growth media was replaced with antagonist concentration-response curve diluted in stimulation buffer (supplied with the kit). […] After 30 min stimulation in a humidified incubator (37° C.) the assay was terminated by the addition of detection mixture as per manufacturer's instructions. The concentration of compound which reduced orexin-A stimulated turnover of inositol phosphates by 50% (IC50) was calculated by fitting to a four parameter sigmoidal dose response curve. The IC50 values were converted to fpKB values using the orexin A pEC50 value estimated on each plate as well as the challenge concentration interpolated from the orexin A control curve.

Human OX2 receptor [3] = target: T2, Human OX2 receptor; test: [3H]-radioligand binding assay, human OX2 receptor membranes
Experimental: as §2, §3

Human OX1 receptor [4] = target: T1, Human OX1 receptor; test: IPone accumulation assay, CHO cells expressing human OX1 receptor; assay type: cell-based; conditions: antagonism of orexin A (EC80) induced inositol phosphate turnover, read-out: fpKb average OX1 (converted)
Experimental: as §1
IPone accumulation assay. A CHO cell line stably expressing either human OX1 or OX2 receptor was used with the IPone HTRF assay kit (CisBio: Part #62IPAPEJ) to measure receptor activation. The assay was optimised to measure the ability (potency; fpKb) of antagonists to reduce agonist (orexin A)-induced inositol phosphate turnover. Briefly, cells were plated onto half area 96-well white walled plates at a density of 12,500 cells/well. Sixteen hours post-plating cell growth media was replaced with antagonist concentration-response curve diluted in stimulation buffer (supplied with the kit). Cells were incubated in a humidified incubator (37° C.) for 30 min before an EC80 challenge concentration (˜20 nM (OX1) and 40 nM (OX2)) of orexin A (Tocris catalogue number 1455). After 30 min stimulation in a humidified incubator (37° C.) the assay was terminated by the addition of detection mixture as per manufacturer's instructions. The concentration of compound which reduced orexin-A stimulated turnover of inositol phosphates by 50% (IC50) was calculated by fitting to a four parameter sigmoidal dose response curve. The IC50 values were converted to fpKB values using the orexin A pEC50 value estimated on each plate as well as the challenge concentration interpolated from the orexin A control curve.

SMILES | Ki (Human OX1 receptor [1]) [nM] | Kb (Human OX2 receptor [2]) [nM] | Ki (Human OX2 receptor [3]) [nM] | Kb (Human OX1 receptor [4]) [nM] | Kd (Human OX1 receptor [1]; read-out: KD value of the radioligand, OX1, saturation isotherms) [nM] | Kd (Human OX2 receptor [3]; read-out: KD value of the radioligand, OX2, saturation isotherms) [nM]
O=C(N[C@H]1CCC[C@@H]1COc1ccc(F)cc1)c1ccccc1-n1nccn1 [Example 1, N-[(1S,2S)-2-[(4-fluorophenoxy)methyl]cyclopentyl]-2-(triazol-2-yl)benzamide] | 10 | > 1580 | > 3160 | 126 |  | 
Cc1ccc(-c2ncccn2)c(C(=O)N[C@H]2CCC[C@@H]2COc2ccc(F)cc2)c1 [Example 2, N-[(1S,2S)-2-[(4-fluorophenoxy)methyl]cyclopentyl]-5-methyl-2-pyrimidin-2-yl-benzamide] | 5.01 | > 1260 | > 5010 | 63.1 |  | 
Cc1ccc(-n2nccn2)c(C(=O)N[C@H]2CCC[C@@H]2COc2ccc(F)cc2)c1 [Example 3, N-[(1S,2S)-2-[(4-fluorophenoxy)methyl]cyclopentyl]-5-methyl-2-(triazol-2-yl)benzamide] | 15.8 |  | > 1260 |  |  | 
COc1cccc(-n2nccn2)c1C(=O)N[C@H]1CCC[C@@H]1COc1ccc(F)cc1 [Example 5, N-[(1S,2S)-2-[(4-fluorophenoxy)methyl]cyclopentyl]-2-methoxy-6-(triazol-2-yl)benzamide] | 1.58 | > 501 | 200 | 1.58 |  | 
COc1cccc(-n2nccn2)c1C(=O)N[C@H]1CCC[C@@H]1COc1ccc(Cl)cc1 [Example 6, N-[(1S,2S)-2-[(4-chlorophenoxy)methyl]cyclopentyl]-2-methoxy-6-(triazol-2-yl)benzamide] | 2.51 | > 794 | 200 | 6.31 |  | 
O=C(N[C@H]1CCC[C@@H]1COc1ccc(F)cc1)c1c(OC(F)F)cccc1-n1nccn1 [Example 8, 2-(difluoromethoxy)-N-[(1S,2S)-2-[(4-fluorophenoxy)methyl]cyclopentyl]-6-(triazol-2-yl)benzamide] | 6.31 | > 398 | 631 | 79.4 |  | 
O=C(N[C@H]1CCC[C@@H]1COc1ccc(F)cc1)c1c(F)cccc1-c1ncccn1 [Example 10, 2-fluoro-N-[(1S,2S)-2-[(4-fluorophenoxy)methyl]cyclopentyl]-6-pyrimidin-2-yl-benzamide] | 6.31 | > 631 | 1580 | 20 |  | 
COc1cccc(-c2cnccn2)c1C(=O)N[C@H]1CCC[C@@H]1COc1ccc(F)cc1 [Example 11, N-[(1S,2S)-2-[(4-fluorophenoxy)methyl]cyclopentyl]-2-methoxy-6-pyrazin-2-yl-benzamide] | 7.94 | > 631 |  | 20 |  | 
COc1cccc(-c2ccncn2)c1C(=O)N[C@H]1CCC[C@@H]1COc1ccc(F)cc1 [Example 12, N-[(1S,2S)-2-[(4-fluorophenoxy)methyl]cyclopentyl]-2-methoxy-6-pyrimidin-4-yl-benzamide] | 3.16 | > 631 | 1000 | 12.6 |  | 
COc1cccc(-c2ncc(F)cn2)c1C(=O)N[C@H]1CCC[C@@H]1COc1ccc(F)cc1 [Example 13, N-[(1S,2S)-2-[(4-fluorophenoxy)methyl]cyclopentyl]-2-(5-fluoropyrimidin-2-yl)-6-methoxy-benzamide] | 12.6 | > 631 | 1580 | 31.6 |  | 
COc1cccc(-n2nccn2)c1C(=O)N[C@H]1CCC[C@@H]1COc1ccc(F)cn1 [Example 31, N-[(1S,2S)-2-[(5-fluoro-2-pyridyl)oxymethyl]cyclopentyl]-2-methoxy-6-(triazol-2-yl)benzamide] | 6.31 |  |  | 10 |  | 
COc1cc(F)c(CN2C(=O)N(c3cnc(OC)c(OC)c3)S(=O)(=O)c3ccccc32)c(F)c1 [[^3H]-4-(2,6-difluoro-4-methoxybenzyl)-2-(5,6-dimethoxypyridin-3-yl)-2H-1,2,4-benzothiadiazin-3(4H)-one 1,1-dioxide, reference compound] |  |  |  |  | 1.5 | 0.75

Continued by falling Ki (Human OX1 receptor [1]), values first:

Ki (Human OX1 receptor [1]) [nM] | Kb (Human OX2 receptor [2]) [nM] | Ki (Human OX2 receptor [3]) [nM] | Kb (Human OX1 receptor [4]) [nM] | Kd (Human OX1 receptor [1]; read-out: KD value of the radioligand, OX1, saturation isotherms) [nM] | Kd (Human OX2 receptor [3]; read-out: KD value of the radioligand, OX2, saturation isotherms) [nM] | SMILES
12.6 | > 2510 | > 1260 | 158 |  |  | O=C(N[C@H]1CCC[C@@H]1COc1ccc(F)cc1)c1c(OC(F)F)cccc1-c1ncccn1 [Example 15, 2-(difluoromethoxy)-N-[(1S,2S)-2-[(4-fluorophenoxy)methyl]cyclopentyl]-6-pyrimidin-2-yl-benzamide]
12.6 | > 631 | 1580 | 20 |  |  | COc1ccc(F)c(-n2nccn2)c1C(=O)N[C@H]1CCC[C@@H]1COc1ccc(F)cc1 [Example 16, 3-fluoro-N-[(1S,2S)-2-[(4-fluorophenoxy)methyl]cyclopentyl]-6-methoxy-2-(triazol-2-yl)benzamide]
3.98 | > 2000 | > 3160 | 63.1 |  |  | O=C(N[C@H]1CCC[C@@H]1COc1ccc(F)cc1)c1c(F)cccc1-n1nccn1 [Example 4, 2-fluoro-N-[(1S,2S)-2-[(4-fluorophenoxy)methyl]cyclopentyl]-6-(triazol-2-yl)benzamide]
3.98 |  |  | 10 |  |  | COc1cccc(-c2ncccn2)c1C(=O)N[C@H]1CCC[C@@H]1COc1ccc(F)cc1 [Example 9, N-[(1S,2S)-2-[(4-fluorophenoxy)methyl]cyclopentyl]-2-methoxy-6-pyrimidin-2-yl-benzamide]
3.98 |  |  | 15.8 |  |  | [2H]C([2H])([2H])Oc1cccc(-n2nccn2)c1C(=O)N[C@H]1CCC[C@@H]1COc1ccc(F)cn1 [Example 33, N-[(1S,2S)-2-[(5-fluoro-2-pyridyl)oxymethyl]cyclopentyl]-2-(triazol-2-yl)-6-(trideuteriomethoxy)benzamide]
2.51 | > 794 | 158 | 0.794 |  |  | [2H]C([2H])(Oc1ccc(F)cc1)[C@H]1CCC[C@@H]1NC(=O)c1c(OC)cccc1-n1nccn1 [Example 7, N-[(1S,2S)-2-[dideuterio-(4-fluorophenoxy)methyl]cyclopentyl]-2-methoxy-6-(triazol-2-yl)benzamide]
1.26 | > 501 | 126 | 1 |  |  | [2H]C([2H])([2H])Oc1cccc(-n2nccn2)c1C(=O)N[C@H]1CCC[C@@H]1COc1ccc(F)cc1 [Example 14, N-[(1S,2S)-2-[(4-fluorophenoxy)methyl]cyclopentyl]-2-(triazol-2-yl)-6-(trideuteriomethoxy)benzamide]
